Data taken from patent publication US12227494B2, “Polymorphisms of HM30181 mesylate” (ATHENEX R&D, LLC, priority 2020, dated 2025).

Test: Polymorph screening (slurry, liquid vapor diffusion, cooling, evaporation, anti-solvent, large scale) with crystal type by XRPD
Type: physicochemical
Conditions: for Observations: large scale (200 mg)
Protocol: Slurry-based generation and/or screening for HM30181 mesylate polymorphs was performed by preparing slurries of starting material HM30181 mesylate Type A in a variety of solvents and under a variety of conditions as described below. The resulting solids were analyzed by XRPD and identified for physical state.
Generation and/or screening of HM30181 mesylate polymorphs was also performed by preparing HM30181 mesylate Type A starting material for liquid and solid vapor diffusion as described below. Resulting solids were analyzed by XRPD and identified for physical state. Liquid vapor diffusion of MTBE into NMP solution yielded HM30181 mesylate Type D (see FIG. 21). Liquid vapor diffusion of MEK into NMP or DMA solution yielded HM30181 mesylate Type D (see FIG. 21). […] Liquid vapor diffusion of 2-MeTHF into DMA or DMF solution yielded HM30181 mesylate Type E (see FIG. 22). Liquid vapor diffusion of MTBE into DMA solution yielded HM30181 mesylate Type E, with a few additional diffraction peaks, which Inventors believe are attributable to HM30181 mesylate Type I (see FIGS. 4 to 8). Liquid vapor diffusion of ACN into DMSO solution yielded HM30181 mesylate Type H (see FIG. 23). Liquid vapor diffusion of Acetone, Ethyl Acetate, or isopropyl acetate into DMA solution yielded HM30181 mesylate Type I (see FIG. 24).
Generation and/or screening of HM30181 mesylate polymorphs by cooling was carried out by treating HM30181 mesylate Type A starting material using gradual or rapid (i.e. crash) cooling as described below. The resulting solids were analyzed by XRPD and identified for physical state.
HM30181 mesylate was also subjected to evaporation methods by treating HM30181 mesylate Type A starting material as described below. The resulting solids were analyzed by XRPD and identified for physical state.
Generation and/or screening of HM30181 mesylate polymorphs by treatment with anti-solvents was performed by treating HM30181 mesylate Type A starting material as described below. The resulting solids were analyzed by XRPD and identified for physical state. Anti-solvent studies in DMSO yielded HM30181 mesylate Type C (see FIG. 26). Anti-solvent studies in N,N-dimethylacetamide with methyl t-butyl ether yielded a HM30181 mesylate Type F polymorphism (see FIG. 27). Anti-solvent addition and reverse anti-solvent addition in DMSO/EtOAc, DMA/MIBK, DMA/toluene and NMP/t-BuOH yielded primarily amorphous content and a polymorphism with some similarity to HM30181 mesylate Type J (see FIG. 28). Other anti-solvent studies in DMSO and DMF yielded a HM30181 mesylate Type K polymorphism (or possibly a mixture of types, see FIG. 29). Anti-solvent experiments in DMF/n-propanol and DMA/isopropanol yielded a HM30181 mesylate Type L polymorphism (see FIG. 30). Anti-solvent addition DMF/Toluene and DMA/t-BuOH were mostly amorphous, but also generated HM30181 mesylate Type M (see FIG. 31).
Large scale studies were performed with HM30181 mesylate Type A starting material on a 200 mg scale as described below. Solids were isolated by vacuum filtration. The wet cakes from filtration from DMA, DMF, and NMP slurries were washed with 1 mL to 2 mL methanol to remove solvents. Solids were then vacuum dried at 80° C. overnight.
Screening of polymorphisms of HM30181 mesylate can include preparation of a slurry. Typically, a slurry was prepared by suspending 5 mg to 20 mg of sample in 0.1 mL to 0.5 mL solvent in a 1.5 mL or 3.0 mL glass vial. The suspension a was stirred at target temperature (e.g. 4° C., ambient temperature, 50° C.) at 200 rpm. Solids for X-ray powder diffraction (XRPD) analysis were separated by centrifuging at 14,000 rpm for 5 minutes at ambient temperature. If no solid or gel is obtained, the slurry can be move to a fume hood for evaporation of the solvent.
In some embodiments anti-solvent addition was used. […]

COc1cc2c(cc1OC)CN(CCc1ccc(-n3nnc(-c4cc(OC)c(OC)cc4NC(=O)c4cc(=O)c5ccccc5o4)n3)cc1)CC2.CS(=O)(=O)O [HM30181 mesylate Type A, HM30181 mesylate]
XRPD (wet cake) (Crash Cooling 50° C.-->−20° C., CHCl3 4 mL, API 25.4 mg, Exp. 6007235-17-C10): No solids | XRPD (wet cake) (Crash Cooling 50° C.-->−20° C., DCM 10 mL, API 22.1 mg, Exp. 6007235-17-C13): No solids | XRPD (wet cake) (Crash Cooling 50° C.-->−20° C., DMA 4 mL, API 26.9 mg, Exp. 6007235-17-C15): Amorphous | XRPD (wet cake) (Crash Cooling 50° C.-->−20° C., DMF 4 mL, API 25.1 mg, Exp. 6007235-17-C16): Amorphous | XRPD (wet cake) (Crash Cooling 50° C.-->−20° C., EtOH 20 mL, API 5 mg, Exp. 6007235-17-C11): No solids | XRPD (wet cake) (Crash Cooling 50° C.-->−20° C., MeOH 10 mL, API 22.9 mg, Exp. 6007235-17-C9): No solids | XRPD (wet cake) (Crash Cooling 50° C.-->−20° C., NMP 4 mL, API 26.2 mg, Exp. 6007235-17-C14): Amorphous | XRPD (wet cake) (Crash cooling 50° C.-->−20° C., ACN 10 mL, API 12.6 mg, Exp. 6007235-17-C12): Type C | XRPD (wet cake) (Slow Cooling 50° C.-->4° C., ACN 10 mL, API 12.6 mg, Exp. 6007235-17-C4): Type C | XRPD (wet cake) (Slow Cooling 50° C.-->4° C., DMF 4 mL, API 25.1 mg, Exp. 6007235-17-C8): No solids | XRPD (wet cake) (Slow Cooling 50° C.-->4° C., EtOH 20 mL, API 5 mg, Exp. 6007235-17-C3): No solids | XRPD (wet cake) (Slow Cooling 50° C.-->4° C., MeOH 20 mL, API 24.7 mg, Exp. 6007235-17-C1): No solids | XRPD (wet cake) (Slow Cooling 50° C.-->4° C., NMP 4 mL, API 20.9 mg, Exp. 6007235-17-C6): No solids | Identification (anti-solvent (Table 13), solvent CHCl3, anti-solvent EtOH 10 mL, NB 6004273-06-A102): Type A | Identification (anti-solvent (Table 13), solvent CHCl3, anti-solvent MTBE 10 mL, NB 6004273-06-A103): Type A | Identification (anti-solvent (Table 13), solvent CHCl3, anti-solvent n-Heptane 10 mL, NB 6004273-06-A104): Type A | Identification (anti-solvent (Table 13), solvent DMSO, anti-solvent Toluene 10 mL, NB 6004273-06-A106): Amorphous | Identification (anti-solvent, solvent CHCl3, anti-solvent 2-MeTHF 10 mL, NB 6004273-06-A27): Type A | Identification (anti-solvent, solvent CHCl3, anti-solvent ACN 10 mL, NB 6004273-06-A30): Type A | Identification (anti-solvent, solvent CHCl3, anti-solvent Acetone 10 mL, NB 6004273-06-A22): Type A | Identification (anti-solvent, solvent CHCl3, anti-solvent CPME 10 mL, NB 6004273-06-A42): Type A | Identification (anti-solvent, solvent CHCl3, anti-solvent Cyclohexane 10 mL, NB 6004273-06-A35): Type A | Identification (anti-solvent, solvent CHCl3, anti-solvent DCM 10 mL, NB 6004273-06-A31): Type A | Identification (anti-solvent, solvent CHCl3, anti-solvent EtOAc 10 mL, NB 6004273-06-A24): Type A | Identification (anti-solvent, solvent CHCl3, anti-solvent Ethanol 10 mL, NB 6004273-06-A20): Type A | Identification (anti-solvent, solvent CHCl3, anti-solvent Ethyl formate 10 mL, NB 6004273-06-A40): Type A | Identification (anti-solvent, solvent CHCl3, anti-solvent IPA 10 mL, NB 6004273-06-A21): Type A | Identification (anti-solvent, solvent CHCl3, anti-solvent MEK 10 mL, NB 6004273-06-A36): Type A | Identification (anti-solvent, solvent CHCl3, anti-solvent MIBK 10 mL, NB 6004273-06-A23): Type A | Identification (anti-solvent, solvent CHCl3, anti-solvent MTBE 10 mL, NB 6004273-06-A29): Type A | Identification (anti-solvent, solvent CHCl3, anti-solvent MeOAc 10 mL, NB 6004273-06-A34): Type A | Identification (anti-solvent, solvent CHCl3, anti-solvent THF 10 mL, NB 6004273-06-A26): Type A | Identification (anti-solvent, solvent CHCl3, anti-solvent Toluene 10 mL, NB 6004273-06-A32): Type A | Identification (anti-solvent, solvent CHCl3, anti-solvent iBuOAc 10 mL, NB 6004273-06-A41): Type A | Identification (anti-solvent, solvent CHCl3, anti-solvent iPrOAc 10 mL, NB 6004273-06-A25): Type A | Identification (anti-solvent, solvent CHCl3, anti-solvent n-Heptane 10 mL, NB 6004273-06-A33): Type A | Identification (anti-solvent, solvent CHCl3, anti-solvent n-Propanol 10 mL, NB 6004273-06-A38): Type A | Identification (anti-solvent, solvent CHCl3, anti-solvent n-Propyl acetate 10 mL, NB 6004273-06-A39): Type A | Identification (anti-solvent, solvent CHCl3, anti-solvent t-Butanol 10 mL, NB 6004273-06-A37): Type A | Identification (anti-solvent, solvent DMA, anti-solvent t-Butanol 20 mL, NB 6004273-06-A97): Type M | Identification (anti-solvent, solvent DMF, anti-solvent EtOAc 10 mL, NB 6004273-06-A47): Type A | Identification (anti-solvent, solvent DMF, anti-solvent EtOH 20 mL, NB 6004273-06-A43): Amorphous | Identification (anti-solvent, solvent DMF, anti-solvent IPA 10 mL, NB 6004273-06-A44): Type K | Identification (anti-solvent, solvent DMF, anti-solvent MIBK 10 mL, NB 6004273-06-A46): Amorphous | Identification (anti-solvent, solvent DMF, anti-solvent MTBE 10 mL, NB 6004273-06-A52): Type A | Identification (anti-solvent, solvent DMF, anti-solvent Toluene 10 mL, NB 6004273-06-A56): Type M | Identification (anti-solvent, solvent DMF, anti-solvent n-Propyl acetate 10 mL, NB 6004273-06-A61): Type A | Identification (anti-solvent, solvent DMSO, anti-solvent 2-MeTHF 10 mL, NB 6004273-06-A8): Amorphous | Identification (anti-solvent, solvent DMSO, anti-solvent ACN 20 mL, NB 6004273-06-A11): Type C | Identification (anti-solvent, solvent DMSO, anti-solvent Acetone 10 mL, NB 6004273-06-A3): Type K | Identification (anti-solvent, solvent DMSO, anti-solvent CHCl3 20 mL, NB 6004273-06-A13): Type K | Identification (anti-solvent, solvent DMSO, anti-solvent EtOH 20 mL, NB 6004273-06-A1): Type K | Identification (anti-solvent, solvent DMSO, anti-solvent MIBK 10 mL, NB 6004273-06-A4): Type K | Identification (anti-solvent, solvent DMSO, anti-solvent MTBE 20 mL, NB 6004273-06-A10): Amorphous | Identification (anti-solvent, solvent DMSO, anti-solvent Toluene 10 mL, NB 6004273-06-A14): Amorphous | Identification (anti-solvent, solvent DMSO, anti-solvent n-Propanol 10 mL, NB 6004273-06-A18): Type K | Identification (anti-solvent, solvent DMSO, anti-solvent n-Propyl acetate 10 mL, NB 6004273-06-A19): Type K | Identification (anti-solvent, solvent DMSO, anti-solvent t-Butanol 10 mL, NB 6004273-06-A17): Type K | Identification (anti-solvent, solvent NMP, anti-solvent 1,4-Dioxane 20 mL, NB 6004273-06-A70): Type A | Identification (anti-solvent, solvent NMP, anti-solvent MEK 20 mL, NB 6004273-06-A77): Amorphous | Observations (Anti-solvent addition, DMA 20 mL, 5 mg/mL, anti-solvent t-BuOH 200 mL, Desired Type M, NB 6004273-10-M): Amorphous | Observations (Anti-solvent addition, DMF 20 mL, 5 mg/mL, anti-solvent Toluene 300 mL, Desired Type M, NB 6004273-10-M1): Amorphous | Observations (Anti-solvent addition, DMF 20 mL, 5 mg/mL, anti-solvent n-propanol 200 mL, Desired Type L, NB 6004273-10-L): Amorphous | Observations (Anti-solvent addition, DMSO 10 mL, 60 mg/mL, anti-solvent MIBK 200 mL, Desired Type K, NB 6004273-10-K): Amorphous | Observations (Slurry at 50° C., DMF 0.2 mL, 576 mg/mL, Desired Type G, NB 6004273-10-G): Type F | Observations (Slurry at 100° C. (for 2 days), DMF 0.2 mL, 595 mg/mL, Desired Type G, NB 6004273-10-F-100C): Type F | Observations (Slurry at 150° C. (for 5 d), DMF 0.2 mL, 595 mg/mL, Desired Type G, NB 6004273-10-F-150C): Decomposition | Observations (Slurry at ambient temperature, DMA 0.2 mL, 576 mg/mL, Desired Type E, NB 6004273-10-E): Type E | Observations (Slurry at ambient temperature, DMF 0.2 mL, 595 mg/mL, Desired Type F, NB 6004273-10-F): Type A | Observations (Slurry at ambient temperature, MeCN 0.2 mL, 545 mg/mL, Desired Type C, NB 6004273-10-C): Type C | Observations (Slurry at ambient temperature, MeOH 0.2 mL, 480 mg/mL, Desired Type B, NB 6004273-10-B): Type N | Observations (Slurry at ambient temperature, NMP 0.2 mL, 550 mg/mL, Desired Type D, NB 6004273-10-D): Amorphous
